The IC50 is the concentration at which inhibition is half-maximal.

The values that follow come from US20240368135A1 (VERTEX PHARMACEUTICALS INCORPORATED, priority 2021, published 2024).

human NaV 1.8, sequence (Q9Y5Y9 126-399 limits assumed): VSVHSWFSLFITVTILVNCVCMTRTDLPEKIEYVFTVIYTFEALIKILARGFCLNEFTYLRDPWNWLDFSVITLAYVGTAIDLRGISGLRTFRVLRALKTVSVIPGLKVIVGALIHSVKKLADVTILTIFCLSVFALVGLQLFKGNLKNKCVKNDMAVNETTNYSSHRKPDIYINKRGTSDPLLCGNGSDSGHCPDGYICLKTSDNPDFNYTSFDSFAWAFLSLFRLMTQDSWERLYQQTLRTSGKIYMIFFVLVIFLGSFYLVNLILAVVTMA
human NaV 1.8, sequence (Q9Y5Y9 660-890 limits assumed): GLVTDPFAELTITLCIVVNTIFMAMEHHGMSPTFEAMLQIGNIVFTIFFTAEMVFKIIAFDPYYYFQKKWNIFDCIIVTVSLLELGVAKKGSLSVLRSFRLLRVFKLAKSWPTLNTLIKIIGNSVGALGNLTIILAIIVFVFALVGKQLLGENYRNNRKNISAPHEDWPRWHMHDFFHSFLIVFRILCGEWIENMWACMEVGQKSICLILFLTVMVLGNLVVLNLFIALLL
human NaV 1.8, sequence (Q9Y5Y9 1148-1722 limits assumed): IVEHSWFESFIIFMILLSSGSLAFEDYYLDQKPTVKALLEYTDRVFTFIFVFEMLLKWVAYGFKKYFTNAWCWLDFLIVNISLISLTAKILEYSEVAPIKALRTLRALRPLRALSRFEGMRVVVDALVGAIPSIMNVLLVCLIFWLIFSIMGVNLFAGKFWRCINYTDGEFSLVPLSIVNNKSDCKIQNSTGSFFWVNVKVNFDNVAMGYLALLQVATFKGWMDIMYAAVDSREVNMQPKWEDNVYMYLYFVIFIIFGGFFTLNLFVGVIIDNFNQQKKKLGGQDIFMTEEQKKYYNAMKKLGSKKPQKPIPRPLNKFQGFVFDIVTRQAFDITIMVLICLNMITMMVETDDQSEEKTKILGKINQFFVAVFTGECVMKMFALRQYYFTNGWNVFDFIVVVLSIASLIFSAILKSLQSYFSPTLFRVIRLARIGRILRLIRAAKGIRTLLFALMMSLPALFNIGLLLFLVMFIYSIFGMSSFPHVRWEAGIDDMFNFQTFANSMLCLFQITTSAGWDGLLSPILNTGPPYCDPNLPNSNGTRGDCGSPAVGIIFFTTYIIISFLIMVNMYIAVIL

In the first test the target is human NaV 1.8 (Homo sapiens, UniProt Q9Y5Y9). The test can be described thus: E-VIPR assay detecting and measuring NaV inhibition properties. The format is cell-based. As to conditions: HEK cells expressing truncated human NaV 1.8; in the presence of human serum (compound numbers followed by *); read-out: IC50 in the E-VIPR Assay, performed in the presence of human serum. An outline of the steps:
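Membrane potential was followed by coumarin/oxonol FRET during electrical field stimulation of matrigel-seeded HEK cells carrying truncated human NaV1.8 plus KIR2.1. Dosing used 11 points, 3-fold steps, top 300 nM final, 0.625% DMSO, with or without 25% human serum.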
For the molecule `CCc1c(F)ccc([C@@H]2C[C@](C)(C(F)(F)F)O[C@H]2C(=O)Nc2cn(S(C)(=O)=O)nc2C)c1OC` (stereo in doubt) [Compound 717, rel-(2R,3S,5R)-3-(3-ethyl-4-fluoro-2-methoxyphenyl)-5-methyl-N-(3-methyl-1-(methylsulfonyl)-1H-pyrazol-4-yl)-5-(trifluoromethyl)tetrahydrofuran-2-carboxamide], the IC50 fell in the range of 100 to 1000 nM.

Turning to `COc1c(C2C(C(=O)Nc3cc(CO)ncc3C)OC(C)(C(F)(F)F)C2C)ccc(F)c1F` (centres unmarked) [Compound 243, 3-(3,4-difluoro-2-methoxy-phenyl)-N-[2-(hydroxymethyl)-5-methyl-4-pyridyl]-4,5-dimethyl-5-(trifluoromethyl)tetrahydrofuran-2-carboxamide], the IC50 was 10 to 100 nM.

Take `COc1c([C@H]2[C@H](C(=O)Nc3ccc4ncn(C)c4c3)O[C@@](C)(C(F)(F)F)[C@H]2C)ccc(F)c1F` [Compound 185, (2R,3S,4S,5R)-3-(3,4-difluoro-2-methoxyphenyl)-4,5-dimethyl-N-(1-methyl-1H-benzo[d]imidazol-6-yl)-5-(trifluoromethyl)tetrahydrofuran-2-carboxamide]: the IC50 is not below 1000 nM.

Take `C[C@@H]1[C@H](c2ccc(F)c(F)c2OC(F)F)[C@@H](C(=O)Nc2ccnnc2)O[C@]1(C)C(F)(F)F` (stereo in doubt) [Compound 63, rel-(2S,3R,4R,5S)-3-(2-(difluoromethoxy)-3,4-difluorophenyl)-4,5-dimethyl-N-(pyridazin-4-yl)-5-(trifluoromethyl)tetrahydrofuran-2-carboxamide]: the IC50 was not below 1000 nM.

On to `COc1c([C@@H]2[C@@H](C(=O)Nc3cc[n+]([O-])c(C(O)CO)c3)O[C@](C)(C(F)(F)F)[C@@H]2C)ccc(F)c1C` (relative stereo) [Compound 138, rel-2-(1,2-dihydroxyethyl)-4-((2S,3R,4R,5S)-3-(4-fluoro-2-methoxy-3-methylphenyl)-4,5-dimethyl-5-(trifluoromethyl)tetrahydrofuran-2-carboxamido)pyridine 1-oxide], for which the IC50 is not below 1000 nM.

Staying with this test, now noted: HEK cells expressing truncated human NaV 1.8; no human serum; read-out: IC50 in the E-VIPR Assay.
Regarding `COc1c([C@H]2[C@H](C(=O)Nc3ccnc(CN4CCC(F)(F)C4)c3)O[C@@](C)(C(F)(F)F)[C@H]2C)ccc(F)c1F` [Compound 182, (2R,3S,4S,5R)-3-(3,4-difluoro-2-methoxyphenyl)-N-(2-((3,3-difluoropyrrolidin-1-yl)methyl)pyridin-4-yl)-4,5-dimethyl-5-(trifluoromethyl)tetrahydrofuran-2-carboxamide], the IC50 was in the range of 10 to 100 nM.

Turning to `C[C@H]1[C@@H](c2ccc(F)c(F)c2OCCO)[C@H](C(=O)Nc2ccnnc2)O[C@@]1(C)C(F)(F)F` [Compound 576, (2R,3S,4S,5R)-3-[3,4-difluoro-2-(2-hydroxyethoxy)phenyl]-4,5-dimethyl-N-pyridazin-4-yl-5-(trifluoromethyl)tetrahydrofuran-2-carboxamide], the IC50 was less than 10 nM.

On to `Cc1c(F)ccc([C@H]2[C@H](C(=O)Nc3ccn(C)c(=O)c3)O[C@@](C)(C(F)(F)F)[C@H]2C)c1OC(F)F` (stereo in doubt) [Compound 100, rel-(2R,3S,4S,5R)-3-(2-(difluoromethoxy)-4-fluoro-3-methylphenyl)-4,5-dimethyl-N-(1-methyl-2-oxo-1,2-dihydropyridin-4-yl)-5-(trifluoromethyl)tetrahydrofuran-2-carboxamide], for which the IC50 was less than 10 nM.

For the molecule `COc1c([C@H]2[C@H](C(=O)Nc3cnc4n3CCCC4)O[C@@](C)(C(F)(F)F)[C@H]2C)ccc(F)c1F` [Compound 317, (2R,3S,4S,5R)-3-(3,4-difluoro-2-methoxyphenyl)-4,5-dimethyl-N-(5,6,7,8-tetrahydroimidazo[1,2-a]pyridin-3-yl)-5-(trifluoromethyl)-tetrahydrofuran-2-carboxamide], the IC50 fell in the range of 100 to 1000 nM.

Regarding `Cc1nn(CCO)cc1NC(=O)[C@@H]1O[C@@](C)(C(F)(F)F)[C@@H](C)[C@H]1c1ccc(F)c(F)c1OC(F)F` (single isomer, unassigned) [Compound 76], the IC50 lay within 10 to 100 nM.

For `COc1c([C@H]2[C@H](C(=O)NCC(=O)N3CCOCC3)O[C@@](C)(C(F)(F)F)[C@H]2C)ccc(F)c1F` [Compound 304, (2R,3S,4S,5R)-3-(3,4-difluoro-2-methoxyphenyl)-4,5-dimethyl-N-(2-morpholino-2-oxoethyl)-5-(trifluoromethyl)tetrahydrofuran-2-carboxamide], the IC50 was not below 1000 nM.

Regarding `COc1c([C@@H]2[C@@H](C(=O)Nc3cnc(C(N)=O)nc3)O[C@](C)(C(F)(F)F)[C@@H]2C)ccc(F)c1C(F)F` (stereo in doubt) [Compound 172, rel-5((2S,3R,4R,5S)-3-(3-(difluoromethyl)-4-fluoro-2-methoxy-phenyl)-4,5-dimethyl-5-(trifluoromethyl)tetrahydrofuran-2-carboxamido)pyrimidine-2-carboxamide], the IC50 was not below 1000 nM.

Take `COCCNC(COC)c1ccc(NC(=O)[C@@H]2O[C@@](C)(C(F)(F)F)[C@@H](C)[C@H]2c2ccc(F)c(F)c2OC)cn1` (single isomer, unassigned) [Compound 417, rel-(2R*,3S*,4S*,5R*)-3-(3,4-difluoro-2-methoxyphenyl)-N-(6-(2-methoxy-1-((2-methoxyethyl)amino)-ethyl)pyridin-3-yl)-4,5-dimethyl-5-(trifluoromethyl)-tetrahydrofuran-2-carboxamide]: the IC50 is 10 to 100 nM.

As for `COc1c([C@H]2[C@H](C(=O)Nc3cc(C4(N)CCOC4)ncc3F)O[C@@](C)(C(F)(F)F)[C@H]2C)ccc(F)c1F` (single isomer, unassigned) [Compound 349, rel-(2R*,3S*,4S*,5R*)-N-(2-(3-aminotetrahydrofuran-3-yl)-5-fluoropyridin-4-yl)-3-(3,4-difluoro-2-methoxyphenyl)-4,5-dimethyl-5-(trifluoromethyl)-tetrahydrofuran-2-carboxamide], the IC50 is less than 10 nM.

As for `COc1c([C@H]2[C@H](C(=O)Nc3ccc(SC)nc3)O[C@@](C)(C(F)(F)F)[C@H]2C)ccc(F)c1F` [Compound 324, (2R,3S,4S,5R)-3-(3,4-difluoro-2-methoxyphenyl)-4,5-dimethyl-N-(6-(methylthio)pyridin-3-yl)-5-(trifluoromethyl)-tetrahydrofuran-2-carboxamide], the IC50 lay in the range of 10 to 100 nM.

For the molecule `COc1c(C2C(C(=O)Nc3ccnc(S(C)(=N)=O)c3)OC(C)(C(F)(F)F)C2C)ccc(F)c1F` (single isomer, unassigned) [Compound 55, 3-(3,4-difluoro-2-methoxy-phenyl)-4,5-dimethyl-N-[2-(methylsulfonimidoyl)-4-pyridyl]-5-(trifluoromethyl)tetrahydrofuran-2-carboxamide], the IC50 was less than 10 nM.

With `COCn1cnc(NC(=O)[C@@H]2O[C@@](C)(C(F)(F)F)[C@@H](C)[C@H]2c2ccc(F)c(F)c2OCCO)n1` [Compound 553, (2R,3S,4S,5R)-3-(3,4-difluoro-2-(2-hydroxyethoxy)phenyl)-N-(1-(methoxymethyl)-1H-1,2,4-triazol-3-yl)-4,5-dimethyl-5-(trifluoromethyl)tetrahydrofuran-2-carboxamide], the IC50 was not below 1000 nM.

On to `COc1c([C@H]2[C@H](C(=O)Nc3ccnc(N4C[C@@H]5C[C@@H](N5)C4=O)c3)O[C@@](C)(C(F)(F)F)[C@H]2C)ccc(F)c1F` (single isomer, unassigned) [Compound 492, rel-(2R*,3S*,4S*,5R*)-3-(3,4-difluoro-2-methoxyphenyl)-4,5-dimethyl-N-(2-((1R,5S)-2-oxo-3,6-diazabicyclo[3.1.1]heptan-3-yl)pyridin-4-yl)-5-(trifluoromethyl)tetrahydrofuran-2-carboxamide], for which the IC50 was 10 to 100 nM.

Turning to `COc1c([C@H]2[C@H](C(=O)Nc3ccnc(CC(C)(C)O)c3)O[C@@](C)(C(F)(F)F)[C@H]2C)ccc(F)c1F` [Compound 405, (2R,3S,4S,5R)-3-(3,4-difluoro-2-methoxy-phenyl)-N-[2-(2-hydroxy-2-methyl-propyl)-4-pyridyl]-4,5-dimethyl-5-(trifluoromethyl)tetrahydrofuran-2-carboxamide], the IC50 lay within 10 to 100 nM.

In the case of `CNC(COC)c1cc(NC(=O)[C@@H]2O[C@@](C)(C(F)(F)F)[C@@H](C)[C@H]2c2ccc(F)c(F)c2OC)ccn1` (single isomer, unassigned) [Compound 412, rel-(2R*,3S*,4S*,5R*)-3-(3,4-difluoro-2-methoxyphenyl)-N-(2-(2-methoxy-1-(methylamino)ethyl)-pyridin-4-yl)-4,5-dimethyl-5-(trifluoromethyl)-tetrahydrofuran-2-carboxamide], the IC50 is less than 10 nM.

In the case of `COc1c([C@H]2[C@H](C(=O)Nc3ccnc(N4C(=O)[C@H]5C[C@@H]4CN5)c3)O[C@@](C)(C(F)(F)F)[C@H]2C)ccc(F)c1F` [Compound 482, (2R,3S,4S,5R)-3-(3,4-difluoro-2-methoxyphenyl)-4,5-dimethyl-N-(2-((1R,4R)-3-oxo-2,5-diazabicyclo[2.2.1]heptan-2-yl)pyridin-4-yl)-5-(trifluoromethyl)tetrahydrofuran-2-carboxamide], the IC50 lay in the range of 10 to 100 nM.

Turning to `COCC(NC(C)C)c1ccc(NC(=O)[C@@H]2O[C@@](C)(C(F)(F)F)[C@@H](C)[C@H]2c2ccc(F)c(F)c2OC)cn1` (single isomer, unassigned) [Compound 421, rel-(2R*,3S*,4S*,5R*)-3-(3,4-difluoro-2-methoxyphenyl)-N-(6-(1-(isopropylamino)-2-methoxyethyl)pyridin-3-yl)-4,5-dimethyl-5-(trifluoromethyl)-tetrahydrofuran-2-carboxamide], the IC50 was 100 to 1000 nM.

Take `COc1c([C@H]2[C@H](C(=O)Nc3ncn(C)c3C)O[C@@](C)(C(F)(F)F)[C@H]2C)ccc(F)c1F` [Compound 322, (2R,3S,4S,5R)-3-(3,4-difluoro-2-methoxyphenyl)-N-(1,5-dimethyl-1H-imidazol-4-yl)-4,5-dimethyl-5-(trifluoromethyl)-tetrahydrofuran-2-carboxamide]: the IC50 is not below 1000 nM.
